Reference: PubChem BioAssay (NCI)
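Dose response: 5 concentrations. Exposure: 48 h. Format: 96-well plates. Endpoint: linear interpolation; highest concentration if not reached. GI50: concentration for 50% inhibition of growth. TGI is the concentration that stops growth completely.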

Experiments:
Experiment in all cases: inhibition of tumour cell growth, NCI panel, 48 h
MALME-3M melanoma = test system: MALME-3M melanoma
NCI-H226 lung = test system: NCI-H226 lung
SF-539 CNS = test system: SF-539 CNS
SK-MEL-5 melanoma = test system: SK-MEL-5 melanoma
SK-OV-3 ovarian = test system: SK-OV-3 ovarian
SW-620 colon = test system: SW-620 colon
UACC-257 melanoma = test system: UACC-257 melanoma
UO-31 renal = test system: UO-31 renal
ACHN renal = test system: ACHN renal

COc1ccc(C2CCc3cc4c(cc3/C2=N/OC(C)=O)OCO4)cc1OC (centres undefined)
TGI (MALME-3M melanoma): 55.2 µM | TGI (NCI-H226 lung): 43.3 µM | TGI (SF-539 CNS): 35.7 µM | TGI (SK-MEL-5 melanoma): 23 µM | TGI (SK-OV-3 ovarian): 95.3 µM | TGI (SW-620 colon): > 100 µM | TGI (UACC-257 melanoma): 51.6 µM | TGI (UO-31 renal): 51.1 µM

S=c1nc(-c2ccnc(-c3nc(=S)[nH][nH]3)c2)[nH][nH]1
TGI (ACHN renal): > 100 µM | TGI (MALME-3M melanoma): > 100 µM | TGI (NCI-H226 lung): > 100 µM | TGI (SF-539 CNS): > 100 µM | TGI (SK-MEL-5 melanoma): > 100 µM | TGI (SK-OV-3 ovarian): > 100 µM | TGI (SW-620 colon): > 100 µM | TGI (UACC-257 melanoma): > 100 µM | TGI (UO-31 renal): > 100 µM

COC(=O)/C(=N\NC(N)=S)C(C#N)c1ccccc1 (centres undefined)
TGI (ACHN renal): > 100 µM | TGI (MALME-3M melanoma): > 100 µM | TGI (NCI-H226 lung): > 100 µM | TGI (SF-539 CNS): > 100 µM | TGI (SK-MEL-5 melanoma): > 100 µM | TGI (SK-OV-3 ovarian): > 100 µM | TGI (SW-620 colon): > 100 µM | TGI (UACC-257 melanoma): > 100 µM | TGI (UO-31 renal): > 100 µM

COc1ccc(S(=O)(=O)N(C)CC(=O)O)cc1
TGI (ACHN renal): > 100 µM | TGI (MALME-3M melanoma): > 100 µM | TGI (NCI-H226 lung): > 100 µM | TGI (SF-539 CNS): > 100 µM | TGI (SK-MEL-5 melanoma): > 100 µM | TGI (SK-OV-3 ovarian): > 100 µM | TGI (SW-620 colon): > 100 µM | TGI (UACC-257 melanoma): > 100 µM | TGI (UO-31 renal): > 100 µM

N[C@@H]1CCCC[C@@H]1N.O=P([O-])([O-])CN(CP(=O)([O-])[O-])CP(=O)([O-])[O-].[Pt+2]
GI50 (ACHN renal): > 100 µM | TGI (ACHN renal): > 100 µM | GI50 (MALME-3M melanoma): > 100 µM | TGI (MALME-3M melanoma): > 100 µM | GI50 (NCI-H226 lung): > 100 µM | TGI (NCI-H226 lung): > 100 µM | GI50 (SF-539 CNS): > 100 µM | TGI (SF-539 CNS): > 100 µM | GI50 (SK-MEL-5 melanoma): > 100 µM | TGI (SK-MEL-5 melanoma): > 100 µM | GI50 (SK-OV-3 ovarian): > 100 µM | TGI (SK-OV-3 ovarian): > 100 µM | GI50 (SW-620 colon): > 100 µM | TGI (SW-620 colon): > 100 µM | GI50 (UACC-257 melanoma): > 100 µM | TGI (UACC-257 melanoma): > 100 µM | GI50 (UO-31 renal): > 100 µM | TGI (UO-31 renal): > 100 µM

CCOc1ccc(C(CN2CCOCC2)C(C)=O)cc1OC (centres undefined)
TGI (ACHN renal): 27.3 µM | TGI (MALME-3M melanoma): 37.5 µM | TGI (NCI-H226 lung): 32.4 µM | TGI (SF-539 CNS): 32.8 µM | TGI (SK-MEL-5 melanoma): 35.2 µM | TGI (SW-620 colon): 31.2 µM | TGI (UACC-257 melanoma): 45.8 µM | TGI (UO-31 renal): 27.8 µM

CC1OC(OC2CCC3(C=O)C4CCC5(C)C(C6=CC(=O)OC6)CCC5(O)C4CCC3(O)C2)C(O)C(O)C1O (centres undefined)
TGI (ACHN renal): 6.36e-05 µM | TGI (MALME-3M melanoma): 8.23e-05 µM | TGI (NCI-H226 lung): 0.000111 µM | TGI (SF-539 CNS): 5.65e-05 µM | TGI (SK-OV-3 ovarian): 0.000102 µM | TGI (SW-620 colon): 8.69e-05 µM | TGI (UACC-257 melanoma): 0.000259 µM

COc1ccc(CCN=C2CCC(C(=O)NCCc3ccc(OC)c(OC)c3)N2)cc1OC (centres undefined)
TGI (ACHN renal): > 100 µM | TGI (MALME-3M melanoma): > 100 µM | TGI (NCI-H226 lung): > 100 µM | TGI (SK-MEL-5 melanoma): > 100 µM | TGI (SK-OV-3 ovarian): > 100 µM | TGI (SW-620 colon): > 100 µM | TGI (UACC-257 melanoma): > 100 µM | TGI (UO-31 renal): > 100 µM

FC1OC2OC1C(OCc1ccccc1)C(OCc1ccccc1)C2OCc1ccccc1 (centres undefined)
TGI (MALME-3M melanoma): > 100 µM | TGI (NCI-H226 lung): > 100 µM | TGI (SF-539 CNS): > 100 µM | TGI (SK-MEL-5 melanoma): > 100 µM | TGI (SK-OV-3 ovarian): > 100 µM | TGI (SW-620 colon): > 100 µM | TGI (UACC-257 melanoma): > 100 µM | TGI (UO-31 renal): > 100 µM

O=C(Cc1csc2nc(-c3ccc(Br)cc3)cn12)N/N=C/c1ccc(O)cc1
GI50 (ACHN renal): 14.7 µM | TGI (ACHN renal): 51 µM | GI50 (SF-539 CNS): 18.4 µM | TGI (SF-539 CNS): 46.5 µM | GI50 (SK-MEL-5 melanoma): 7.14 µM | TGI (SK-MEL-5 melanoma): 22.2 µM | GI50 (SK-OV-3 ovarian): 52.5 µM | TGI (SK-OV-3 ovarian): > 100 µM | GI50 (SW-620 colon): 31.5 µM | TGI (SW-620 colon): > 100 µM | GI50 (UACC-257 melanoma): 1.52 µM | TGI (UACC-257 melanoma): 7.72 µM | GI50 (UO-31 renal): 26.3 µM | TGI (UO-31 renal): > 100 µM

CN1CCc2c1nc(-c1ccc([N+](=O)[O-])cc1)c1c2N(C)CC1
TGI (ACHN renal): > 100 µM | TGI (MALME-3M melanoma): > 100 µM | TGI (SF-539 CNS): > 100 µM | TGI (SK-MEL-5 melanoma): > 100 µM | TGI (SK-OV-3 ovarian): > 100 µM | TGI (SW-620 colon): > 100 µM | TGI (UACC-257 melanoma): > 100 µM | TGI (UO-31 renal): > 100 µM

N=C1C=C(N)C(=O)c2[nH]c(=O)ccc21
TGI (ACHN renal): 3.1 µM | TGI (MALME-3M melanoma): 6.19 µM | TGI (NCI-H226 lung): 6.04 µM | TGI (SF-539 CNS): 3.73 µM | TGI (SK-MEL-5 melanoma): 3.22 µM | TGI (SK-OV-3 ovarian): 26.7 µM | TGI (SW-620 colon): 6.7 µM | TGI (UACC-257 melanoma): 16.6 µM

CSC1=NCC2(S1)c1ccccc1N(C(=O)OC(C)(C)C)C2N1CCCCC1 (centres undefined)
GI50 (MALME-3M melanoma): 15.3 µM | TGI (MALME-3M melanoma): > 100 µM | GI50 (NCI-H226 lung): > 100 µM | TGI (NCI-H226 lung): > 100 µM | GI50 (SF-539 CNS): > 100 µM | TGI (SF-539 CNS): > 100 µM | GI50 (SK-MEL-5 melanoma): > 100 µM | TGI (SK-MEL-5 melanoma): > 100 µM | GI50 (SW-620 colon): > 100 µM | TGI (SW-620 colon): > 100 µM | GI50 (UACC-257 melanoma): > 100 µM | TGI (UACC-257 melanoma): > 100 µM | GI50 (UO-31 renal): 78.7 µM | TGI (UO-31 renal): > 100 µM

C[C@]12CC[C@H](OC3CCCCO3)CC1=CC[C@@H]1C2CC[C@]2(C)/C(=N/O)CCC12 (some centres undefined)
TGI (ACHN renal): 54.3 µM | TGI (MALME-3M melanoma): 80.4 µM | TGI (SF-539 CNS): > 100 µM | TGI (SK-MEL-5 melanoma): > 100 µM | TGI (SK-OV-3 ovarian): 82 µM | TGI (SW-620 colon): > 100 µM | TGI (UACC-257 melanoma): 79.8 µM | TGI (UO-31 renal): > 100 µM

O=C(Nc1cccc(NC(=O)c2cc(=O)c3ccccc3o2)n1)c1cc(=O)c2ccccc2o1
TGI (ACHN renal): > 100 µM | TGI (MALME-3M melanoma): > 100 µM | TGI (SF-539 CNS): > 100 µM | TGI (SK-MEL-5 melanoma): > 100 µM | TGI (SK-OV-3 ovarian): > 100 µM | TGI (SW-620 colon): > 100 µM | TGI (UACC-257 melanoma): > 100 µM | TGI (UO-31 renal): 85.6 µM

CCCCCCCCCCCCCCCCOC(=O)c1cc(O)cc(C(=O)OCCCCCCCCCCCCCCCC)c1
TGI (ACHN renal): > 100 µM | TGI (MALME-3M melanoma): > 100 µM | TGI (NCI-H226 lung): > 100 µM | TGI (SK-MEL-5 melanoma): > 100 µM | TGI (SK-OV-3 ovarian): > 100 µM | TGI (SW-620 colon): > 100 µM | TGI (UACC-257 melanoma): > 100 µM | TGI (UO-31 renal): > 100 µM

CC(=O)C1C(=O)N(C(C)C)C[C@@H]2CCC(=O)C[C@H]12 (some centres undefined)
TGI (MALME-3M melanoma): > 100 µM | TGI (SF-539 CNS): > 100 µM | TGI (SK-MEL-5 melanoma): > 100 µM | TGI (SK-OV-3 ovarian): > 100 µM | TGI (SW-620 colon): > 100 µM | TGI (UACC-257 melanoma): > 100 µM | TGI (UO-31 renal): > 100 µM
